From patent US7087642B2 (priority 1999, dated 2006)
Like-named read-outs stand apart in the source and are kept apart here.

Assays:
IMPDH human type II = IMPDH human type II (Homo sapiens, UniProt P12268); experiment: biochemical; settings: read-out: Ki
human PBMC T cells = experiment: cells; type: cell-based; settings: read-out: T-cells (IC50)
human PBMC B cells = experiment: cells; type: cell-based; settings: read-out: B-cells (IC50)

| SMILES | Ki (IMPDH human type II) [nM] | IC50 (human PBMC T cells; Homo sapiens, 72 h) [nM] | IC50 (human PBMC B cells; Homo sapiens, 72 h) [nM] | IC50 (human PBMC T cells) [nM] | IC50 (human PBMC B cells) [nM] |
| --- | --- | --- | --- | --- | --- |
| COc1cc(NC(=O)Nc2cccc(CNC(=O)OC[C@@H](N)CC#N)c2)ccc1-c1cnco1 [Compound 5] | < 10 | > 1000 | > 1000 | – | – |
| COc1cc(NC(=O)Nc2cccc(CNC(=O)OC[C@H](CC#N)N(C)C)c2)ccc1-c1cnco1 [Compound 6] | < 10 | 100 to 1000 | 100 to 1000 | – | – |
| COc1cc(NC(=O)Nc2cccc(CNC(=O)OCC(C)(C)CCC#N)c2)ccc1-c1cnco1 [Compound 7] | < 10 | 100 to 1000 | 100 to 1000 | – | – |
| CCC(CCC#N)COC(=O)NCc1cccc(NC(=O)Nc2ccc(-c3cnco3)c(OC)c2)c1 (stereo not drawn) [Compound 8] | < 10 | 100 to 1000 | 100 to 1000 | – | – |
| COc1cc(NC(=O)Nc2cccc(CNC(=O)OC[C@H](N)CC#N)c2)ccc1-c1cnco1 [Compound 9] | < 10 | 100 to 1000 | 100 to 1000 | – | – |
| COc1cc(NC(=O)Nc2cccc(CNC(=O)OC[C@H](CC#N)NC(=O)CC(C)(C)C)c2)ccc1-c1cnco1 [Compound 10] | < 10 | 100 to 1000 | > 1000 | – | – |
| COc1cc(NC(=O)Nc2cccc(CNC(=O)OC(COC(C)C)CN(CCC#N)CC(C)C)c2)ccc1-c1cnco1 (stereo not drawn) [Compound 11] | < 10 | > 1000 | 100 to 1000 | – | – |
| COc1cc(NC(=O)Nc2cccc(CNC(=O)OC[C@@H](CC#N)NC(=O)OC(C)(C)C)c2)ccc1-c1cnco1 [Compound 12] | < 10 | 100 to 1000 | 100 to 1000 | – | – |
| COc1cc(NC(=O)Nc2cccc(CNC(=O)OC(CC#N)CC#N)c2)ccc1-c1cnco1 [Compound 13] | < 10 | 100 to 1000 | 100 to 1000 | – | – |
| COc1cc(NC(=O)Nc2cccc(CNC(=O)OCCN(CCC#N)CCC#N)c2)ccc1-c1cnco1 [Compound 14] | < 10 | > 1000 | 100 to 1000 | – | – |
| COc1cc(NC(=O)Nc2cccc(CNC(=O)OC[C@@H](CC#N)N(C)C)c2)ccc1-c1cnco1 [Compound 15] | < 10 | 100 to 1000 | 100 to 1000 | – | – |
| CCN(CC)C[C@@H](CC#N)OC(=O)NCc1cccc(NC(=O)Nc2ccc(-c3cnco3)c(OC)c2)c1 [Compound 16] | < 10 | – | – | > 1000 | > 1000 |
| COc1cc(NC(=O)Nc2cccc(CNC(=O)O[C@H](CC#N)CN3CCOCC3)c2)ccc1-c1cnco1 [Compound 18] | < 10 | – | – | > 1000 | > 1000 |
| CCN(CC)C[C@H](CC#N)OC(=O)NCc1cccc(NC(=O)Nc2ccc(-c3cnco3)c(OC)c2)c1 [Compound 19] | < 10 | – | – | 100 to 1000 | 100 to 1000 |
| COc1cc(NC(=O)Nc2cccc(CNC(=O)O[C@@H](CC#N)CN3CCOCC3)c2)ccc1-c1cnco1 [Compound 20] | < 10 | – | – | 100 to 1000 | 100 to 1000 |
| COc1cc(NC(=O)Nc2cccc(CNC(=O)O[C@@H](CC#N)CN(C)C)c2)ccc1-c1cnco1 [Compound 22] | < 10 | 100 to 1000 | 100 to 1000 | – | – |
| COc1cc(NC(=O)Nc2cccc(CNC(=O)O[C@H](CCl)CC#N)c2)ccc1-c1cnco1 [Compound 23] | < 10 | < 100 | < 100 | – | – |
| COc1cc(NC(=O)Nc2cccc(CNC(=O)OCCCl)c2)ccc1-c1cnco1 [Compound 24] | < 10 | > 1000 | > 1000 | – | – |
| COc1cc(NC(=O)Nc2cccc(CNC(=O)OC(C)CC#N)c2)ccc1-c1cnco1 (stereo not drawn) [Compound 26] | < 10 | < 100 | < 100 | – | – |
| CCC(CC#N)OC(=O)NCc1cccc(NC(=O)Nc2ccc(-c3cnco3)c(OC)c2)c1 (stereo not drawn) [Compound 27] | < 10 | < 100 | < 100 | – | – |
| COc1cc(NC(=O)Nc2cccc(CNC(=O)O[C@@H](C)CC#N)c2)ccc1-c1cnco1 [Compound 28] | < 10 | – | – | 100 to 1000 | 100 to 1000 |
| COc1cc(NC(=O)Nc2cccc(CNC(=O)O[C@H](C)CC#N)c2)ccc1-c1cnco1 [Compound 29] | < 10 | – | – | < 100 | < 100 |
